“Also recorded” adds a separate entry of the source.

This note sets out measurements from patent US11421218B2, “Methods for enhancing the efficiency of gene editing” (Dana-Farber Cancer Institute, Inc., priority 2016, dated 2022).

The subject of one series is RAD51 foci. Nature of the series: RAD51 foci formation by immunofluorescence in MMC-treated GM6914 cells. The series is classed as cell-based. The note with it: GM6914 (FA-A) or GM6914+FANCA cells, 1 μM MMC, 10 μM inhibitors, 6 h. On the procedure: GM6914 (FA-A) cells or corrected GM6914+FANCA cells were treated with 1 μMMMC and 10 μM inhibitors for 6 h before immunofluorescence analysis. Representative images (FIG. 3E) and quantification (FIG. 3F) of RAD51 foci are shown, (Scale bar: 50 μm).

The test system of series [1] is U2OS cells with DR-GFP reporter. Nature of the series: Homologous recombination assay, U2OS cells with DR-GFP reporter. The series is classed as cell-based. The following applies: 10 μM. On the procedure: Homologous recombination assay was measured in U2OS cells with DR-GFP reporter after treatment with 10 μM RI-1 and 10 μM B02. The representative of two independent experiments is presented.
HR assay was measured in U2OS cells with DR-GFP reporter after transduction with lentivirus encoding indicated shRNAs. The representative of three independent experiments is presented.

The next series has as its system HSPCs. Nature of the series: HSPC survival with RAD51 inhibitors (cytotoxicity). The series is classed as cell-based. The following applies: HSPCs from WT or Fancd2−/− mice, 10 μM, in vitro five days. On the procedure:
HSPCs from WT or Fancd2−/− mice were treated with B02 (10 μM) or RI-1 (10 μM) in vitro for five days and survival was determined.

Series [2] has as its system GM6914 cells (FA-A cells). Nature of the series: Traffic light reporter assay of HR and NHEJ repair events. The class given is cell-based. The following applies: GM6914 cells exposed to SD-208 for 72 hrs. The source says:
FIGS. 4A-4B are graphs showing that TGF-β pathway inhibition affects the choice of HR versus NHEJ pathways in repairing individual DNA breakpoints in FA cells. GM6914 cells (FA-A cells) or FANCA corrected GM6914 cells with shControl or shSMAD3 were used to generate traffic light reporter system, and then were infected with GFP-donor template and I-SceI lentivirus to generate DNA breakpoints. Quantification analysis of HR and NHEJ repair events is shown. (FIG. 4B) The ratio of HR to NHEJ activity based on the data in (FIG. 4A).
Quantification of HR and NHEJ repair events in GM6914 cells exposed to SD-208 for 72 hrs as detected by traffic light reporter assay described in FIG. 4A.
FIG. 5A is a schematic of traffic light reporter assay. Endonuclease 1-SceI induces double strand break (DSB) in the restriction site. […]
FIG. 5B is a graph showing HR and NHEJ repair analyzed by traffic light reporter (TLR) system. […] HR and NHEJ repair events (GFP or mCherry positive cells) were quantified by flow cytometry.
To directly confirm that inhibition of TGF-β pathway modulates HR or NHEJ activity, we engineered an individual DNA breakpoint in FA (GM6914) cells and employed the traffic light reporter […] system which quantifies both HR and NHEJ activities (Certo et al., 2011). […]
Background: Reporter assays use an easily measured gene product as a stand-in for the process of interest.

A further series concerns LT-HSCs. Briefly: pIpC stress in mice, comet assay on LT-HSCs. The note with it: wild-type or Fancd2-deficient mice, pretreated in vivo. The source says: (§1) FIG. 6A is a schematic showing that wild-type or Fancd2-deficient mice were exposed to the physiologic stress, pIpC. Mice were pretreated in vivo with either no Tgfβ inhibitor, the neutralizing antibody to Tgfβ 1, 2, 3, or the Tgfβ receptor kinase inhibitor, Galunisertib. Long-term HSCs (LT-HSCs) were isolated and subjected to functional tests.

The next series relates to gamma H2AX foci. Briefly: pIpC stress in mice, gamma H2AX foci. The following applies: wild-type or Fancd2-deficient mice, pretreated in vivo.
Text: as §1

Another series has as its system TGFβ signaling. Briefly: Physiological stress (pIpC)-induced bone marrow failure in mice. The note with it: pretreated in vivo.
Text: as §1

Turning to `O=c1c2ccccc2nc(/C=C/c2cccnc2)n1Cc1ccccc1` [B02], the RAD51 foci formation entry with RAD51 foci is recorded as “efficiently block RAD51 foci formation”. Moreover, the HR efficiency result in series [1] is given as “significantly decrease HR efficiency”. Also, the “cytotoxicity in HSPCs (survival)” value in the series on HSPCs is on record as “do not show cytotoxicity in HSPCs”.

For `O=C1C(Cl)=C(N2CCOCC2)C(=O)N1c1ccc(Cl)c(Cl)c1` [RI-1], in the series on RAD51 foci, the RAD51 foci formation entry is on record as “efficiently block RAD51 foci formation”. Further, in series [1], the HR efficiency result is recorded as “significantly decrease HR efficiency”. For the same compound, in the series with HSPCs, the “cytotoxicity in HSPCs (survival)” value was “do not show cytotoxicity in HSPCs”.

Consider `Fc1ccc(Cl)cc1-c1nc(Nc2ccncc2)c2nccnc2n1` [SD208, 2-(5-Chloro-2-fluorophenyl)-4-[(4-pyridyl)amino]pteridine], for which, in series [2], the HR repair events entry was “increased HR activity in FA cells; also recorded: increases FIR events” and the NHEJ repair events entry is on record as “decreases NHEJ events”.

As to `Cc1cccc(-c2nn3c(c2-c2ccnc4ccc(C(N)=O)cc24)CCC3)n1` [Galunisertib, 4-[2-(6-methylpyridin-2-yl)-5,6-dihydro-4H-pyrrolo[1,2-b]pyrazol-3-yl]quinoline-6-carboxamide], the “pIpC-induced DNA damage in LT-HSCs, comet assay” value in the series with LT-HSCs is recorded as “rescued the pIpC-induced DNA damage”. The “pIpC-induced DNA damage, gamma H2AX foci” value with gamma H2AX foci is “rescued the pIpC-induced DNA damage”. In addition, the “physiological stress-induced bone marrow failure” value in the series on TGFβ signaling is “rescues physiological stress-induced bone marrow failure in mice”.
